1 compound from US20060147569A1, “Anti-depression formulations” (priority 2005, published 2006) can be followed below.

Test [1] has as its system Male ICR mice. Briefly: Tail suspension test (TST) in mice. It is filed as in vivo. To be noted: oral once daily, 26 mg/kg. An excerpt: A major symptom of depression is decrease of motivational behaviors. In the TST model, the tail-suspended mice struggle in attempt to overcome the abnormal body positions, which is a motivational behavior. After a period of time, the mice started to show occasional immobility, representing a “despair” mental state. The immobility is regarded as “failure to adapt to stress” and can be served as an indicator of the level of depression. The effectiveness of anti-depression drugs could be derived by measuring the duration of immobility after the mice had been tail-suspended for a period of time. The model is sensitive to anti-depression drugs and is widely adopted as a means to screen such drugs. (Steru L, Chermat R, Thierry B, Simon P. 1985.)
(§1) Male ICR mice (26±2 g) were used. The mice were housed in polycarbonate cages. […]
(§2) The animals were deprived of food but not water for 1.5 h prior to drug administration of. […] The volume of the suspension administered was based on body weight measured immediately prior to each dose, respectively. […]
The tail suspension test was based on the method of Steru (Steru, et al., 1985). […] The duration of immobility time was recorded during the final 4 min interval of the test. […]
(§3) All data were expressed as mean±SEM, and analyzed using one-way analysis of variance (ANOVA). […]

The test system of test [2] is Male ICR mice. Briefly: Forced swimming test (FST) in mice. It is filed as in vivo. To be noted: oral once daily, 26 mg/kg.
Text: A major symptom of depression is decrease of motivational behaviors. In the FST model, the mice were forced to swim in a restricted space. First, they struggle in attempt to escape, which is a motivational behavior. After a period of time, the mice started to show occasional immobility, representing a “despair” mental state. The immobility is regarded as “failure to adapt to stress” and can be served as an indicator of the level of depression. The effectiveness of anti-depression drugs could be derived by measuring the duration of immobility after the mice had been forced to swim for a period of time. The model is sensitive to anti-depression drugs and is widely adopted as a means to screen such drugs. (Porsolt et al., 1977)
as §1, §2
The studies were carried out on mice according to the method of Porsolt (Porsolt, et al., 1977). […] The duration of immobility time was measured during the final 4 min interval of the test. […]
as §3

Molecules are shown by their SMILES. Structures can show the parent of a compound that is named as a salt.

As for `CNCCC(Oc1ccc(C(F)(F)F)cc1)c1ccccc1` (stereo not shown) [Fluoxetine, Fluoxetine Hydrochloride], the Duration of immobility in the test on Male ICR mice [1] (3 days) amounted to 23.2 ± 5.2 s; with Male ICR mice [1] (7 days), 28.8 ± 6.4 s; in the test on Male ICR mice [2] (3 days) it was 67.6 ± 10.2 s; in the test on Male ICR mice [2] (7 days), 67.1 ± 8.9 s.
